System: Fisher 344 rats fed a choline-deficiented, L-amino acid-defined (CDAA) diet (animal model for fatty liver)
Test: CDAA diet rat model for fatty liver: liver staining for lipid droplets and serum triglyceride
Format: in vivo
Procedure: Fisher 344 rats were fed only a general diet or a choline-deficiented, L-amino acid-defined (CDAA) diet to prepare a control group and a CDAA group as an animal model for fatty liver, respectively. Three medicament-treated groups were prepared by administering the following three medicaments to the CDAA groups every day. (Aspirin and ticlopidine are medicaments having the same platelet aggregation inhibitory action as cilostazol.)
In addition, the amount of triglyceride in the liver as well as the serum level of triglyceride in those rats were measured.

O=C1CCc2cc(OCCCCc3nnnn3C3CCCCC3)ccc2N1 [cilostazol, 6-[4-(1-cyclohexyl-1H-tetrazol-5-yl)butoxy]-3,4-dihydrocarbostyril]
lipid droplet of liver (Hematoxylin-eosin staining and Masson staining) (CDAA diet + 6 mg/kg every day for 6 weeks, compared with CDAA group without cilostazol and with aspirin (5 mg/kg) / ticlopidine (10 mg/kg) groups, FIG. 1-9): markedly less
serum level of triglyceride (CDAA diet + 6 mg/kg every day, 6 weeks after start of administration, compared with control group and other medicaments-treated groups, FIG. 10): significantly lower

Source: patent publication US8642618B2, “Carbostyril derivatives including cilostazol for treating fatty liver” (Otsuka Pharmaceutical Co., Ltd., priority 2007, dated 2014)
